Laboratory results published in US8517736B2, “Method for alleviating the undesired side effects of dental bleaching” (Dr. Gunnar Rolla Consultant AS, priority 2011, dated 2013).
Where two headings read alike, the source gives them in different places.

How the values were obtained:
[1] = test system: hypersensitive bleached front teeth
Experimental: A volunteer had performed a self-bleaching procedure on their teeth, using a home kit. They complained and described their front teeth as extremely sensitive for changes of temperature in drinks or food. The teeth were rinsed carefully with water at room temperature, and isolated with cotton rolls. The teeth were kept dry and then treated with a generous amount of a saturated aqueous solution of Ca(OH)2, at an acceptable temperature, for a period of about 5 minutes. After a few additional minutes the cotton rolls were removed, and treatment with an aqueous solution of 2.0% by weight of NaF was performed, to induce formation CaF2, to stabilize the calcium added.

[2] = saturated, or less than saturated, aqueous solutions
[3] = SEM micrographs of bleached human tooth enamel surface; conditions: human tooth enamel after bleaching with peroxide
Excerpt: FIG. 2: A SEM micrograph showing the same tooth surface (from FIG. 1) covered with a film of dehydrated Ca(OH)2.
FIG. 3: A SEM micrograph showing the same tooth surface (from FIG. 2) subsequently treated with 2% by weight NaF-solution.

SMILES: [Ca+2].[OH-].[OH-] [Ca(OH)2, calcium hydroxide]
- tooth colour after treatment ([1]; after saturated Ca(OH)2 then 2.0% NaF treatment): maintained an acceptable colour
- reappearance of sensitivity after treatment ([1]; follow-up after saturated Ca(OH)2 then 2.0% NaF treatment): sensitivity has not reappeared
- hypersensitivity of bleached teeth after treatment ([1]; volunteer, saturated aqueous Ca(OH)2 about 5 minutes, followed by aqueous 2.0% by weight NaF): hypersensitivity was eliminated
- pH [2]: > 10
- pH ([2]; listed as calcium hydroxide): 14

SMILES: OO [peroxide, hydrogen peroxide]
- enamel surface appearance after bleaching (SEM, FIG. 1) [3]: pitted and damaged by demineralization
